The results in this text go back to patent US10047084B2, “Imidazolone derivatives, pharmaceutical compositions and uses thereof” (BEIJING FORELANDPHARMA CO. LTD., priority 2013, dated 2018).

The structures appear in SMILES notation.

For assay [1], the target named is mTOR kinase (Homo sapiens (Human), UniProt P42345). The assay is described as follows: mTOR kinase activity assay (TR-FRET, GFP-4EBP1 substrate). The format is biochemical. The note with it: read-out: Enzyme (mTOR) IC50. As to the method:
1. mTOR Kinase Activity Assay: The inhibition of the mTOR protein kinase activity by the compounds was determined by the enzymatic activity assay in vitro. The detection kit supplied by Invitrogen was used to detect the inhibition of the activity of the mTOR […]. The principle of the assay was as follows: mTOR kinase, fluorescein-labeled substrate and ATP were mixed, and after the reaction, EDTA and terbium-labeled first antibody were added. During the chemical reaction process of the mTOR kinase, the antibody recognized the phosphorylated and fluorescein-labeled substrate, and then the “time-resolved fluorescence resonance energy transfer” (TR-FRET) effect was enhanced. TR-FRET effect was calculated as the ratio of signals from the acceptor fluorescein to signals from the donor terbium. The amount of the antibody bound to the tracer was directly proportional to the amount of the phosphorylated substrate after the reaction. In this way, the kinase activity can be detected. In this assay, the substrate of the mTOR kinase was green fluorescent protein-coupled 4E binding protein 1 (GFP-4EBP1).
1.1 Materials and Instruments:
4-Hydroxyethylpiperazine ethanesulfonic acid (HEPES, Sigma, Cat# SH3375), ethylene glycol-bis-(2-aminoethylether)-tetraacetic acid (EGTA, Sigma, Cat# E3889), manganese chloride (MnCl2, Sigma, Cat# M1787), Tween-20 (Tween-20, Amresco), 1,4-dithiothreitol (DTT, Merck, CB233155),

Assay [2] has as its system SK-BR3/BT474. The assay is described as follows: CTG cell survival assay, SK-BR3/BT474. Format: cell-based. The note with it: SK-BR3/BT474 cells. An outline of the steps: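 Cells were exposed to compounds in a 3-fold dilution series, with a top final concentration of 10 uM in 0.1% DMSO. Viable cells were quantified by CellTiter-Glo ATP luminescence.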
For assay [3], the target named is PI3K-alpha (PIK3CA/PIK3R1) (Homo sapiens (Human), UniProt P42336). The assay is described as follows: PI3K-alpha enzyme activity assay (ADP Glo). The format is biochemical. The note with it: read-out: Activity of inhibiting PI3K enzyme IC50. From the text: 3. PI3K-alpha Enzyme Activity Assay: PI3K alpha-ADP Glo Assay was employed. In the determination of PI3K enzyme activity, the detection kit supplied by Promega (Promega, Cat #: V9101) was used to detect the inhibition effect of the compounds on the activity of PI3K enzyme. The adenosine diphosphate produced during the whole enzymic reactions was quantified. The resulting values were used to calculate the activity of PI3K (Table 1).
Sequence of PI3K-alpha (PIK3CA/PIK3R1) (P42336 whole entry, looked up): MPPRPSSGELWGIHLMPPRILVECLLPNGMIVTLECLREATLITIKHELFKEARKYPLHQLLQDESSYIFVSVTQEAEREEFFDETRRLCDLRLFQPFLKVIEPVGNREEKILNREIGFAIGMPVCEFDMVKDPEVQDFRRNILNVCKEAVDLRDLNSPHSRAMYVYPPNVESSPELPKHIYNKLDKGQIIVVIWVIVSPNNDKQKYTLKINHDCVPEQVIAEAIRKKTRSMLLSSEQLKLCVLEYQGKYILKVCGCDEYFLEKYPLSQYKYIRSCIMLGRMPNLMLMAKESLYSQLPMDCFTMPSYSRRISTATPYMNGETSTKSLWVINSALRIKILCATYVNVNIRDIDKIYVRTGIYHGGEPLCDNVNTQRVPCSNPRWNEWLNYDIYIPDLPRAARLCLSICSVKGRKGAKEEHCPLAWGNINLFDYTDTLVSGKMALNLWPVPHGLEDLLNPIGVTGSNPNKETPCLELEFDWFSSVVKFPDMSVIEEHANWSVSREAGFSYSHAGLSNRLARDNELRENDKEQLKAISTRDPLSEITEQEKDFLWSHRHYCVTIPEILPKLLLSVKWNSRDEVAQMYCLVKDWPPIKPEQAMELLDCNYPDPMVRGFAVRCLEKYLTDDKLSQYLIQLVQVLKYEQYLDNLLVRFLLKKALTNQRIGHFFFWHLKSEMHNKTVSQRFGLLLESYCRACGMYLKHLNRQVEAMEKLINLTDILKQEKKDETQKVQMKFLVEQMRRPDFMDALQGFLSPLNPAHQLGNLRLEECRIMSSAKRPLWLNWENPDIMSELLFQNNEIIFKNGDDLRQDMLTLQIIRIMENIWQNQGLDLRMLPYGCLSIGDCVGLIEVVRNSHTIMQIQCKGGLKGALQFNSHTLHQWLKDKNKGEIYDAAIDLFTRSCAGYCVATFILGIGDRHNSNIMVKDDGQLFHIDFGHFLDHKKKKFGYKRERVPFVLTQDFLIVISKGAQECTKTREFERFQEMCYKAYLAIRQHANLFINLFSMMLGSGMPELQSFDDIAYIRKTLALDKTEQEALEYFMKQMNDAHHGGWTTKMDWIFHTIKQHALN
Sequence of PI3K-alpha (PIK3CA/PIK3R1) (P27986 whole entry partner, looked up): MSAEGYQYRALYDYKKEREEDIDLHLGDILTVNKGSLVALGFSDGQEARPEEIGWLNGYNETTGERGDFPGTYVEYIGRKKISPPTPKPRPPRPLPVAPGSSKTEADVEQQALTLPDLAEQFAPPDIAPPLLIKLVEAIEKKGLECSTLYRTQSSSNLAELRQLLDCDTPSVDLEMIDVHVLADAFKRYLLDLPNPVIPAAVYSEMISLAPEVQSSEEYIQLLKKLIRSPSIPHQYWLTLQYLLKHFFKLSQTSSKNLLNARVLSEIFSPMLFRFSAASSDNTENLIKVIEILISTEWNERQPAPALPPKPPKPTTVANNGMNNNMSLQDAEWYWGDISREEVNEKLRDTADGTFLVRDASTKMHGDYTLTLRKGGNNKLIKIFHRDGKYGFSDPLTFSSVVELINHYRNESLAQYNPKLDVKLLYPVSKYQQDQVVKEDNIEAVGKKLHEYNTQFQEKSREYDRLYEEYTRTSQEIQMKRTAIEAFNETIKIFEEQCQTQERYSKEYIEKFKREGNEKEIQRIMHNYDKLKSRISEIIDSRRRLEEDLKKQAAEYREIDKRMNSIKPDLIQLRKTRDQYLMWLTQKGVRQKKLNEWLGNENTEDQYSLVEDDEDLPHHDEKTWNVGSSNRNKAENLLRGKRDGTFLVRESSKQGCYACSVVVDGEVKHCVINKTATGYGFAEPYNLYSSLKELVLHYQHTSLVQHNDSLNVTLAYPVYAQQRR
3.1 Detection reagents: PIK3CA/PIK3R1 purchased from Invitrogen (Cat #: PV4788): The active kinase was diluted with kinase diluent III; and mixed with bovine serum albumin (BSA) in a ratio of 1:4 (5×dilution). The final BSA concentration was 50 ng/ml; and the compositions of Kinase Detection Solution I were: 25 mM MOPS, pH7.2, 12.5 mM β-glycerophosphate, 25 mM magnesium chloride, 5 mM EGTA, and 2 mM EDTA. Before use, 0.25 mM DTT was added to Kinase Detection Solution I; 250 μM adenosine triphosphate (ATP) Detection solution: 0.55 mg of ATP was dissolved in 4 ml of Kinase Detection Solution I, subdivided in 200 μl/vial and stored at −20° C. Substrate: Phosphatidylinositol (4,5) bis-phosphate; this substrate was diluted with Kinase Detection Solution I to a concentration of 125 μM. Final concentrations were: 10 μM PIP2, 10 μM ATP, 1% DMSO, and 0.0005-10 μM compounds.
a) Experimental Procedure: • 3.2.1 50 μL of the compounds diluted with dimethyl sulfoxide (DMSO) at a concentration of 100 μM were added to the 384-well dilution plate. The compounds were diluted with dimethyl sulfo de (DMSO) in a ratio of 1:3 (10 dilution concentrations plus 1 zero concentration). • 3.2.2 5 μL of the diluted compounds were transferred to the corresponding 384-well black Proxi plate (containing 47.5 μL of detection solution/well), and shaked for several seconds. • 3.2.3 2 μL of 2.5×PI3K working solution was added to 384-well black Proxi plate. • 3.2.4 2 μL of the diluted compounds were added to the detection plate (3 wells for each concentration). • 3.2.5 The plate was incubated at room temperature for 2 h. • 3.2.6 5 μL of ADP Glo Reagent was added. • 3.2.7 The plate was incubated at room temperature for 40 minutes. • 3.2.8 10 μL of the kinase detection reagent was added. • 3.2.9 The plate was incubated at room temperature for 40 minutes. • 3.2.10 The activity was detected by using Envision Reader.
The inhibition of the mTOR […] activity by the compounds ranges in 0.5 to several hundreds nanomoles, see Table 1.

Sequence of mTOR kinase (P42345 1360-2549): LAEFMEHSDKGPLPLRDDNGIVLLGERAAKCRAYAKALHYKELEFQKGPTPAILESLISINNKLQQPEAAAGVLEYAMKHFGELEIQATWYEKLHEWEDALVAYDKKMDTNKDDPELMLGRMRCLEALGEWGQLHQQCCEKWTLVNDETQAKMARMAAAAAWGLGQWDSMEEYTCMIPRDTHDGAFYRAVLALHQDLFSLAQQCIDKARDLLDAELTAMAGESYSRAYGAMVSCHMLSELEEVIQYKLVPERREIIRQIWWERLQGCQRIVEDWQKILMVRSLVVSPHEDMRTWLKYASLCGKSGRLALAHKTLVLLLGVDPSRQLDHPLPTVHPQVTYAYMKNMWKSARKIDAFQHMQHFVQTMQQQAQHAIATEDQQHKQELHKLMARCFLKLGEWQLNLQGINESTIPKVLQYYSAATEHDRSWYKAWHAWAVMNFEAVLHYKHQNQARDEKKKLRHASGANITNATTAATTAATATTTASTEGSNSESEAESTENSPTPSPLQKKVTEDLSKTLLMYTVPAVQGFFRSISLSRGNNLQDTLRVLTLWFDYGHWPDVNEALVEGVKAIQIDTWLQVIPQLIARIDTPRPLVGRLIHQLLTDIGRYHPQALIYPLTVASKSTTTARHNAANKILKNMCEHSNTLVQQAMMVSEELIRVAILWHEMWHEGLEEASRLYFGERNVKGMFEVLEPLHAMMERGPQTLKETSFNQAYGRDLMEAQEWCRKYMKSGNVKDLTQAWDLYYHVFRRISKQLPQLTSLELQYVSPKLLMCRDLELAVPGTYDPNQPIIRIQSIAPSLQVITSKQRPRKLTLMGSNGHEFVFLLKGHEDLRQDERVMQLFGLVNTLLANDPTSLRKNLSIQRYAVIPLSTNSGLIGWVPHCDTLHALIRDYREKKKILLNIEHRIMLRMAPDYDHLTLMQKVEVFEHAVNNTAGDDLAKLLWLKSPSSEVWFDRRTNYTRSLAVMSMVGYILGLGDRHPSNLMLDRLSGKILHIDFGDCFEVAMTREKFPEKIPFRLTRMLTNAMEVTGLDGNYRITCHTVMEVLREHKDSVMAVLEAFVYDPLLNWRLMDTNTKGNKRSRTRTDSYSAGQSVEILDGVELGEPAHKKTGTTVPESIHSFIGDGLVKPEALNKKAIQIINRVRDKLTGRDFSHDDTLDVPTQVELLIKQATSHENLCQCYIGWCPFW

In the case of `Cn1cc(-c2ccc(-c3ccc4ncc5c(c4c3)n([C@@H]3CCN(S(C)(=O)=O)C3)c(=O)n5C)cn2)cn1` [Example 27, (R)-3-methyl-8-(6-(1-methyl-1H-pyrazol-4-yl)pyridin-3-yl)-1-(1-(methanesulfonyl)pyrrolidin-3-yl)-1H-imidazo[4,5-c]quinolin-2(3H)-one], the IC50 in assay [1] is 100 to 1000 nM; in assay [3], less than 10 nM. The EC50 in assay [2] was less than 1000 nM.
